In patent publication US20230045421A1 (priority 2018, published 2023):

system: HBV rcDNA; assay: HepDE19 assay with bDNA quantitation of HBV rcDNA; assay type: cell-based, hepatitis B virus; settings: HepDE19 assay, inhibition of formation of rcDNA; read-out: DE-19bDNA EC50
In short: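 Compounds, top concentration 25 μM in 8-point duplicate series, were applied to Tet-free HepDE19 cultures for 7 days. Branched-DNA quantitation of HBV rcDNA against untreated wells gave EC50 and EC90 by 4-parameter fit. Viability (CC50) came from ATP luminescence on parallel plates incubated 4 days.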

In order of rising EC50:
1. CC(c1c[nH]c(=O)c2ccccc12)N(CC1CCCC1)C(=O)Nc1ccc(F)c(Cl)c1 (single isomer, unassigned) [Compound 193, 3-(3-Chloro-4-fluorophenyl)-1-(cyclopentylmethyl)-1-(1-(1-oxo-1,2-dihydroisoquinolin-4-yl)ethyl)urea]  0.01 µM
2. CC(c1cnc(NCc2cn[nH]n2)c2ccccc12)N(C)C(=O)Nc1ccc(F)c(Cl)c1 (single isomer, unassigned) [Compound 262, 1-(1-(1-(((2H-1,2,3-Triazol-4-yl)methyl)amino)isoquinolin-4-yl)ethyl)-3-(3-chloro-4-fluorophenyl)-1-methylurea]  0.15 µM
3. CC(c1cnc(NCCO)c2ccccc12)N(C)C(=O)Nc1ccc(F)c(Cl)c1 (single isomer, unassigned) [Compound 242, 3-(3-Chloro-4-fluorophenyl)-1-(1-(1-((2-hydroxyethyl)amino)isoquinolin-4-yl)ethyl)-1-methylurea]  0.17 µM
4. CC(c1cnc(N)c2ccccc12)N(C)C(=O)Nc1ccc(F)c(Cl)c1 (single isomer, unassigned) [Compound 239, 1-(1-(1-Aminoisoquinolin-4-yl)ethyl)-3-(3-chloro-4-fluorophenyl)-1-methylurea]  0.21 µM
5. CC(c1c[nH]c(=O)c2ccccc12)N(CC1CC1)C(=O)Nc1ccc(F)c(Cl)c1 (single isomer, unassigned) [Compound 85, 3-(3-Chloro-4-fluorophenyl)-1-(cyclopropylmethyl)-1-(1-(1-oxo-1,2-dihydroisoquinolin-4-yl)ethyl)urea]  0.46 µM
6. CC(c1cn(C(C)C)c(=O)c2ccccc12)N(C)C(=O)Nc1ccc(F)c(Cl)c1 (single isomer, unassigned) [Compound 188, 3-(3-Chloro-4-fluorophenyl)-1-(1-(2-isopropyl-1-oxo-1,2-dihydroisoquinolin-4-yl)ethyl)-1-methylurea]  1.8 µM
7. CC(c1c[nH]c(=O)c2ccccc12)N(CCC(=O)N(C)C)C(=O)Nc1ccc(F)c(Cl)c1 (single isomer, unassigned) [Compound 105, 3-(3-(3-Chloro-4-fluorophenyl)-1-(1-(1-oxo-1,2-dihydroisoquinolin-4-yl)ethyl)ureido)-N,N-dimethylpropanamide]  3.4 µM
8. CC(c1cnc(OCc2nc[nH]n2)c2ccccc12)N(C)C(=O)Nc1ccc(F)c(Cl)c1 (single isomer, unassigned) [Compound 145, 1-(1-(1-((1H-1,2,4-Triazol-3-yl)methoxy)isoquinolin-4-yl)ethyl)-3-(3-chloro-4-fluorophenyl)-1-methylurea]  4.2 µM
9. CC(=O)NCCN(C(=O)Nc1ccc(F)c(Cl)c1)C(C)c1c[nH]c(=O)c2ccccc12 (single isomer, unassigned) [Compound 138, N-(2-(3-(3-Chloro-4-fluorophenyl)-1-(1-(1-oxo-1,2-dihydroisoquinolin-4-yl)ethyl)ureido)ethyl)acetamide]  19 µM
10. CCOCCN(C(=O)Nc1ccc(F)c(Cl)c1)C(C)c1cnc(OC)c2ccccc12 (single isomer, unassigned) [Compound 125, 3-(3-Chloro-4-fluorophenyl)-1-(2-ethoxyethyl)-1-(1-(1-methoxyisoquinolin-4-yl)ethyl)urea]  20 µM
11. CC(c1c[nH]c(=O)c2ccccc12)N(CCO)C(=O)Nc1ccc(F)c(Cl)c1 (single isomer, unassigned) [Compound 196, 3-(3-Chloro-4-fluorophenyl)-1-(2-hydroxyethyl)-1-(1-(1-oxo-1,2-dihydroisoquinolin-4-yl)ethyl)urea]  20 µM

same assay, conditions: HepDE19 assay, inhibition of formation of relaxed circular DNA (rcDNA), bDNA quantitation; read-out: DE-19bDNA EC50

In order of falling EC50:
1. CCN(C(=O)Nc1ccc(F)cc1)C(C)c1c[nH]c(=O)c2cc(F)c(F)cc12 (single isomer, unassigned) [Compound 402, 1-(1-(6,7-Difluoro-1-oxo-1,2-dihydroisoquinolin-4-yl)ethyl)-1-ethyl-3-(4-fluorophenyl)urea]  10 µM
2. CC(c1cnc(-n2ccnn2)c2ccccc12)N(C)C(=O)Nc1ccc(F)c(Cl)c1 (single isomer, unassigned) [Compound 424, 1-(1-(1-(1H-1,2,3-Triazol-1-yl)isoquinolin-4-yl)ethyl)-3-(3-chloro-4-fluorophenyl)-1-methylurea]  6.4 µM
3. CC(C)CN(C(=O)Nc1ccc(F)c(Cl)c1)C(C)c1cn(C)c(=O)c2cc(F)c(F)cc12 (single isomer, unassigned) [Compound 342, 3-(3-Chloro-4-fluorophenyl)-1-(1-(6,7-difluoro-2-methyl-1-oxo-1,2-dihydroisoquinolin-4-yl)ethyl)-1-isobutylurea]  0.62 µM
4. CC(c1c[nH]c(=O)c2cc(F)c(F)cc12)N(CCCO)C(=O)Nc1ccc(F)c(Cl)c1 (single isomer, unassigned) [Compound 289, 3-(3-Chloro-4-fluorophenyl)-1-(1-(6,7-difluoro-1-oxo-1,2-dihydroisoquinolin-4-yl)ethyl)-1-(3-hydroxypropyl)urea]  0.37 µM
5. CC(c1cn(C)c(=O)c2cc(F)ccc12)N(C)C(=O)Nc1ccc(F)c(Cl)c1 (single isomer, unassigned) [Compound 303, 3-(3-Chloro-4-fluorophenyl)-1-(1-(7-fluoro-2-methyl-1-oxo-1,2-dihydroisoquinolin-4-yl)ethyl)-1-methylurea]  0.02 µM
6. CCN(C(=O)Nc1ccc(F)c(F)c1)C(C)c1c[nH]c(=O)c2c(F)c(F)ccc12 (single isomer, unassigned) [Compound 463, 1-(1-(7,8-Difluoro-1-oxo-1,2-dihydroisoquinolin-4-yl)ethyl)-3-(3,4-difluorophenyl)-1-ethylurea]  0.008 µM
7. Cc1cc(NC(=O)N(C)C(C)c2c[nH]c(=O)c3cc(F)c(F)cc23)ccc1F (single isomer, unassigned) [Compound 427, 1-(1-(6,7-Difluoro-1-oxo-1,2-dihydroisoquinolin-4-yl)ethyl)-3-(4-fluoro-3-methylphenyl)-1-methylurea]  0.007 µM

same assay, conditions: Hepatitis B virus, HepDE19, HepDE19 assay, inhibition of formation of rcDNA; read-out: DE-19bDNA EC50

In order of falling EC50:
1. O=C(NCc1c[nH]c(=O)c2ccccc12)Nc1ccc(F)c(Cl)c1 [Compound 8, 1-(3-Chloro-4-fluorophenyl)-3-((1-oxo-1,2-dihydroisoquinolin-4-yl)methyl)urea]  6.8 µM
2. COCCN(Cc1cnc(OC)c2ccccc12)C(=O)Nc1ccc(F)c(Cl)c1 [Compound 41, 3-(3-Chloro-4-fluorophenyl)-1-(2-methoxyethyl)-1-((1-methoxyisoquinolin-4-yl)methyl)urea]  3.8 µM
3. CC(c1c[nH]c(=O)c2cc(F)c(F)cc12)N(C)C(=O)Nc1ccc(F)c(Cl)c1 (single isomer, unassigned) [Compound 278, 3-(3-Chloro-4-fluorophenyl)-1-(1-(6,7-difluoro-1-oxo-1,2-dihydroisoquinolin-4-yl)ethyl)-1-methylurea]  1 µM
4. COCCCn1cc(C(C)N(C)C(=O)Nc2ccc(F)c(Cl)c2)c2ccccc2c1=O (single isomer, unassigned) [Compound 200, 3-(3-Chloro-4-fluorophenyl)-1-(1-(2-(3-methoxypropyl)-1-oxo-1,2-dihydroisoquinolin-4-yl)ethyl)-1-methylurea]  0.4 µM
5. COCCn1cc(C(C)N(C)C(=O)Nc2ccc(F)c(Cl)c2)c2ccccc2c1=O (single isomer, unassigned) [Compound 191, 3-(3-Chloro-4-fluorophenyl)-1-(1-(2-(2-methoxyethyl)-1-oxo-1,2-dihydroisoquinolin-4-yl)ethyl)-1-methylurea]  0.36 µM
6. CC(c1c[nH]c(=O)c2cc(Cl)ccc12)N(C)C(=O)Nc1ccc(F)c(Cl)c1 (racemic) [Compound 271, 1-(1-(7-Chloro-1-oxo-1,2-dihydroisoquinolin-4-yl)ethyl)-3-(3-chloro-4-fluorophenyl)-1-methylurea]  0.2 µM
7. C[C@H](c1c[nH]c(=O)c2ccccc12)N(C)C(=O)Nc1cc(F)c(F)c(F)c1 [Compound 91, (R)-1-Methyl-1-(1-(1-oxo-1,2-dihydroisoquinolin-4-yl)ethyl)-3-(3,4,5-trifluorophenyl)urea]  0.16 µM
8. CC(c1cn(CCO)c(=O)c2ccccc12)N(C)C(=O)Nc1ccc(F)c(Cl)c1 (single isomer, unassigned) [Compound 205, 3-(3-Chloro-4-fluorophenyl)-1-(1-(2-(2-hydroxyethyl)-1-oxo-1,2-dihydroisoquinolin-4-yl)ethyl)-1-methylurea]  0.16 µM

same assay, conditions: Hepatitis B virus, HepDE19, HepDE19 assay, inhibition of formation of relaxed circular DNA (rcDNA), bDNA quantitation; read-out: DE-19bDNA EC50

`CC(c1cnc(-n2cncn2)c2ccccc12)N(C)C(=O)Nc1ccc(F)c(Cl)c1` (racemic) [Compound 297, 1-(1-(1-(1H-1,2,4-triazol-1-yl)isoquinolin-4-yl)ethyl)-3-(3-chloro-4-fluorophenyl)-1-methylurea] was tested, and the EC50 was 0.18 µM.

same assay, conditions: Hepatitis B virus, HepDE19, read-out: DE-19bDNA EC50 (μM), HepDE19 assay, inhibition of formation of relaxed circular DNA (rcDNA), bDNA quantitation

`CC(c1c[nH]c(=O)c2c(F)c(F)ccc12)N(C)C(=O)N[C@@H](C)c1ccccc1` (single isomer, unassigned) [Compound 487] showed an EC50 of 23 µM.

same assay, conditions: read-out: DE-19bDNA EC50; HepDE19 assay, inhibition of formation of relaxed circular DNA (rcDNA), bDNA quantitation

In order of rising EC50:
1. CCN(C(=O)Nc1ccccc1)C(C)c1c[nH]c(=O)c2c(F)c(F)ccc12 (single isomer, unassigned) [Compound 467, 1-(1-(7,8-Difluoro-1-oxo-1,2-dihydroisoquinolin-4-yl)ethyl)-1-ethyl-3-phenylurea]  0.066 µM
2. CN(C(=O)Nc1ccc(F)c(Cl)c1)C(CO)c1c[nH]c(=O)c2ccccc12 (single isomer, unassigned) [Compound 379, 3-(3-Chloro-4-fluorophenyl)-1-(2-hydroxy-1-(1-oxo-1,2-dihydroisoquinolin-4-yl)ethyl)-1-methylurea]  0.14 µM
